The results in this text go back to patent publication US9365512B2, “Isoindoline derivatives, pharmaceutical compositions containing them, and their use in therapy” (AbbVie Deutschland GmbH & Co. KG, priority 2012, dated 2016).

Structures are written as SMILES.

The target of this experiment is T1, human GlyT1c transporter (Homo sapiens, UniProt P48067).
T1 construct: expressed in transfected cells; host or cells: CHO cells (recombinant; membranes)
T1 sequence (P48067 1-706): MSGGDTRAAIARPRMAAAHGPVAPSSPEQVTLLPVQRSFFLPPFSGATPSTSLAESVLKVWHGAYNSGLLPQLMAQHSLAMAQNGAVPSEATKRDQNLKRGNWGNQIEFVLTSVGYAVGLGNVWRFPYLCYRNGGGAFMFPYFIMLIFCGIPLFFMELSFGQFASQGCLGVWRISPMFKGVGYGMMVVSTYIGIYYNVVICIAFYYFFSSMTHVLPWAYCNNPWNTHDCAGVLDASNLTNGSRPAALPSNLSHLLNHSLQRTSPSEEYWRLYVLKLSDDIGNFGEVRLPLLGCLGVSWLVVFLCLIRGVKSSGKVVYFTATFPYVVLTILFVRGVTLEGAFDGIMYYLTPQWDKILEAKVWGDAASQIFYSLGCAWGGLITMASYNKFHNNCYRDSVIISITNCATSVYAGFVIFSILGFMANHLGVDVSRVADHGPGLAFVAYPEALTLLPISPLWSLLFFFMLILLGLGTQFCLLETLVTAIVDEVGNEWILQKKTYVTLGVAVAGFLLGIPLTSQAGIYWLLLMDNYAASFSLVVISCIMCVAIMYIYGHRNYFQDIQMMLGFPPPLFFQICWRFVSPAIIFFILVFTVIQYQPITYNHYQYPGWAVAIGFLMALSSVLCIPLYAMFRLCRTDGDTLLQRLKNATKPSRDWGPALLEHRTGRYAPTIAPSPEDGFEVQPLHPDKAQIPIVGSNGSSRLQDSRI
The experiment in a line: Radioligand binding assay using recombinant CHO cell membranes expressing human GlyT1. The following applies: read-out: radioligand binding Kiapp. The method, then:
2. Radioligand Binding Assays Using Recombinant CHO Cell Membranes Expressing Human GlyT1:
Radioligand binding to human GlyT1c transporter-expressing membranes was determined as described in Mezler et al., Molecular Pharmacology 74:1705-1715, 2008.
For the compound `Cn1cnc(S(=O)(=O)NCCOc2cc3c(cc2F)CNC3Cc2ccccc2)c1` (stereo not drawn) [Example 21, 1-Methyl-1H-imidazole-4-sulfonic acid [2-(3-benzyl-6-fluoro-2,3-dihydro-1H-isoindol-5-yloxy)-ethyl]-amide], the Ki is below 100 nM. In the case of `CC(C)(C)OC(=O)NCCOc1ccc2c(c1)C(Cc1ccccc1)NC2=O` (stereo not drawn) [Example 3, [2-(3-Benzyl-1-oxo-2,3-dihydro-1H-isoindol-5-yloxy)-ethyl]-carbamic acid tert-butyl ester], the Ki is above 10000 nM. To `CCCS(=O)(=O)NCc1ccc2c(c1)C(Cc1ccccc1)NC2` (stereo not drawn) [Example 31, Propane-1-sulfonic acid (3-benzyl-2,3-dihydro-1H-isoindol-5-ylmethyl)-amide] belongs below 10000 nM; to `Cn1cnc(S(=O)(=O)NCCOc2ccc3c(c2)C(C)(Cc2ccccc2)NC3)c1` (stereo not drawn) [Example 11, N-[2-(3-Benzyl-3-methyl-isoindolin-5-yl)oxyethyl]-1-methyl-imidazole-4-sulfonamide], below 100 nM; to `Cn1cnc(S(=O)(=O)NCCOc2cc3c(cc2F)C(=O)NC3Cc2ccccc2)c1` (stereo not drawn) [Example 19, N-[2-(3-Benzyl-6-fluoro-1-oxo-isoindolin-5-yl)oxyethyl]-1-methyl-1H-imidazole-4-sulfonamide], below 1000 nM.

Turning to `Cn1cc(S(=O)(=O)NCCOc2ccc3c(c2)C(Cc2ccccc2)N(C(=O)C(F)(F)F)C3)cn1` (stereo not drawn) [Example 12], the Ki is below 1000 nM. With `Cn1cc(S(=O)(=O)NCCOc2ccc3c(c2)C(Cc2ccccc2)N(C2COC2)C3)cn1` (stereo not drawn) [Example 16, N-[2-[3-Benzyl-2-(oxetan-3-yl)isoindolin-5-yl]oxyethyl]-1-methyl-1H-pyrazole-4-sulfonamide; 2,2,2-trifluoroacetic acid], the Ki was below 100 nM.

For the compound `O=S(=O)(CC1CC1)NCCOc1cc2c(cc1F)CNC2Cc1ccccc1` (stereo not drawn) [Example 23, N-[2-(3-Benzyl-6-fluoro-2,3-dihydro-1H-isoindol-5-yloxy)-ethyl]-C-cyclopropyl-methanesulfonamide], the Ki was below 1000 nM.

Turning to `CC1(Cc2ccccc2)NCc2ccc(OCCNS(=O)(=O)CC3CC3)cc21` (stereo not drawn) [Example 18, N-[2-(3-Benzyl-3-methyl-isoindolin-5-yl)oxyethyl]-1-cyclopropyl-methanesulfonamide; 2,2,2-trifluoroacetic acid], the Ki is below 1000 nM. Turning to `CC1(Cc2ccccc2)NC(=O)c2ccc(OCCNS(=O)(=O)CC3CC3)cc21` (stereo not drawn) [Example 17, N-[2-(3-Benzyl-3-methyl-1-oxo-isoindolin-5-yl)oxyethyl]-1-cyclopropyl-methanesulfonamide], the Ki was below 10000 nM.

For `Cn1cc(S(=O)(=O)NCCOc2ccc3c(c2)C(C)(Cc2ccccc2)NC3)cn1` (stereo not drawn) [Example 10, N-[2-(3-Benzyl-3-methyl-isoindolin-5-yl)oxyethyl]-1-methyl-1H-pyrazole-4-sulfonamide], the Ki is below 100 nM. Consider `Cn1cnc(S(=O)(=O)NCc2ccc3c(c2)C(Cc2ccccc2)NC3=O)c1` (stereo not drawn) [Example 2, N-[(3-Benzyl-1-oxo-isoindolin-5-yl)methyl]-1-methyl-1H-imidazole-4-sulfonamide], for which the Ki was below 1000 nM. Regarding `CN1Cc2ccc(OCCNS(=O)(=O)c3cn(C)cn3)cc2C1Cc1ccccc1` (stereo not drawn) [Example 14, N-[2-(3-Benzyl-2-methyl-isoindolin-5-yl)oxyethyl]-1-methyl-1H-imidazole-4-sulfonamide; 2,2,2-trifluoroacetic acid], the Ki was below 100 nM.

With `O=C1NC(Cc2ccccc2)c2cc(OCCNS(=O)(=O)CC3CC3)c(F)cc21` (stereo not drawn) [Example 22, N-[2-(3-Benzyl-6-fluoro-1-oxo-2,3-dihydro-1H-isoindol-5-yloxy)-ethyl]-C-cyclopropyl-methanesulfonamide], the Ki was below 10000 nM. In the case of `Cn1cnc(S(=O)(=O)NCCOc2ccc3c(c2)C(Cc2ccccc2)NC3=O)c1` (stereo not drawn) [Example 1, N-[2-(3-benzyl-1-oxo-isoindolin-5-yl)oxyethyl]-1-methyl-1H-imidazole-4-sulfonamide], the Ki is below 1000 nM. Take `CCS(=O)(=O)NCCOc1cc2c(cc1F)C(=O)NC2Cc1ccccc1` (stereo not drawn) [Example 24, Ethanesulfonic acid [2-(3-benzyl-6-fluoro-1-oxo-2,3-dihydro-1H-isoindol-5-yloxy)-ethyl]-amide]: the Ki was below 10000 nM. With `CCS(=O)(=O)NCCOc1cc2c(cc1F)CNC2Cc1ccccc1` (stereo not drawn) [Example 25, Ethanesulfonic acid [2-(3-benzyl-6-fluoro-2,3-dihydro-1H-isoindol-5-yloxy)-ethyl]-amide], the Ki was below 10000 nM. To `Cn1cc(S(=O)(=O)NCCOc2ccc3c(c2)C(Cc2ccccc2)N(CC(F)(F)F)C3)cn1` (stereo not drawn) [Example 15, N-[2-[3-Benzyl-2-(2,2,2-trifluoroethyl)isoindolin-5-yl]oxyethyl]-1-methyl-1H-pyrazole-4-sulfonamide; 2,2,2-trifluoroacetic acid] belongs below 1000 nM.

Turning to `Cn1cc(S(=O)(=O)NCCOc2ccc3c(c2)C(Cc2ccccc2)NC3=O)cn1` (stereo not drawn) [Example 6, N-[2-(3-Benzyl-1-oxo-isoindolin-5-yl)oxyethyl]-1-methyl-1H-pyrazole-4-sulfonamide], the Ki was below 10000 nM. With `Cn1cc(S(=O)(=O)NCCOc2ccc3c(c2)C(C)(Cc2ccccc2)NC3=O)cn1` (stereo not drawn) [Example 9, N-[2-(3-Benzyl-3-methyl-1-oxo-isoindolin-5-yl)oxyethyl]-1-methyl-1H-pyrazole-4-sulfonamide] the figure was below 10000 nM; with `O=C1NC(Cc2ccccc2)c2cc(CNS(=O)(=O)CC3CC3)ccc21` (stereo not drawn) [Example 26, N-(3-Benzyl-1-oxo-2,3-dihydro-1H-isoindol-5-ylmethyl)-C-cyclopropyl-methanesulfonamide], below 10000 nM; with `Cn1cnc(S(=O)(=O)NCCOc2ccc3c(c2)C(C)(Cc2ccccc2)NC3=O)c1` (stereo not drawn) [Example 8, N-[2-(3-Benzyl-3-methyl-1-oxo-isoindolin-5-yl)oxyethyl]-1-methyl-1H-imidazole-4-sulfonamide], below 10000 nM.

On to `CCS(=O)(=O)NCc1ccc2c(c1)C(Cc1ccccc1)NC2` (stereo not drawn) [Example 30, Ethanesulfonic acid (3-benzyl-2,3-dihydro-1H-isoindol-5-ylmethyl)-amide], for which the Ki is below 100000 nM.

For the compound `O=S(=O)(CC1CC1)NCc1ccc2c(c1)C(Cc1ccccc1)NC2` (stereo not drawn) [Example 29, N-(3-Benzyl-2,3-dihydro-1H-isoindol-5-ylmethyl)-C-cyclopropyl-methanesulfonamide], the Ki is below 10000 nM. Turning to `CCCS(=O)(=O)NCc1ccc2c(c1)C(Cc1ccccc1)NC2=O` (stereo not drawn) [Example 28, Propane-1-sulfonic acid (3-benzyl-1-oxo-2,3-dihydro-1H-isoindol-5-ylmethyl)-amide], the Ki was below 10000 nM. `CN1Cc2ccc(OCCNS(=O)(=O)c3cnn(C)c3)cc2C1Cc1ccccc1` (stereo not drawn) [Example 13, N-[2-(3-Benzyl-2-methyl-isoindolin-5-yl)oxyethyl]-1-methyl-1H-pyrazole-4-sulfonamide; 2,2,2-trifluoroacetic acid]: the Ki is below 10 nM. With `CN1Cc2cc(F)c(OCCNS(=O)(=O)CC3CC3)cc2C1Cc1ccccc1` (stereo not drawn) [Example 20, N-(2-(3-Benzyl-6-fluoro-2-methylisoindolin-5-yloxy)ethyl)-1-cyclopropyl-methanesulfonamide] the figure was below 1000 nM.
